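Five compound concentrations were applied to cells in 96-well plates for 48 hours; endpoints were derived by simple linear interpolation of the resulting dose-response curve. GI50 = concentration required for 50% inhibition of growth.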 Activity calls are given as the source filed them. Rule as the data show it: active = GI50 up to about 1.1 µM and inactive = higher.
What was measured:
Test in all cases: inhibition of tumour cell growth, NCI panel, 48 h
[1] = tested on: CAKI-1
[2] = tested on: UACC-62
[3] = tested on: SK-MEL-28
[4] = tested on: KM12
[5] = tested on: Hs-578T
[6] = tested on: T47D
[7] = tested on: 786-0
[8] = tested on: IGROV-1
[9] = tested on: A549
[10] = tested on: SN12C
[11] = tested on: OVCAR-3
[12] = tested on: DU-145
[13] = tested on: SF-539
[14] = tested on: NCI-H460
[15] = tested on: RPMI-8226
[16] = tested on: HCT-15
[17] = tested on: SNB-19
[18] = tested on: HCT-116
[19] = tested on: SW-620
[20] = tested on: CCRF-CEM

| Compound | GI50 [1] | GI50 [2] | GI50 [3] | GI50 [4] | GI50 [5] | GI50 [6] | GI50 [7] | GI50 [8] | GI50 [9] | GI50 [10] | GI50 [11] | GI50 [12] | GI50 [13] | GI50 [14] | GI50 [15] | GI50 [16] | GI50 [17] | GI50 [18] | GI50 [19] | GI50 [20] |
| --- | --- | --- | --- | --- | --- | --- | --- | --- | --- | --- | --- | --- | --- | --- | --- | --- | --- | --- | --- | --- |
| Cn1c(=O)c2nc(CCCc3ccc([N+](=O)[O-])cc3)[nH]c2n(C)c1=O | > 100 µM (inactive) | > 100 µM (inactive) | > 100 µM (inactive) | > 100 µM (inactive) | > 100 µM (inactive) | > 100 µM (inactive) | > 100 µM (inactive) | > 100 µM (inactive) | > 100 µM (inactive) | > 100 µM (inactive) | > 100 µM (inactive) | > 100 µM (inactive) | 38.5 µM (inactive) | 91.2 µM (inactive) | > 100 µM (inactive) | > 100 µM | > 100 µM (inactive) | > 100 µM (inactive) |  |  |
| CC1CCc2sc3nc4n(c(=O)c3c2C1)CC(C)S4 (stereo unspecified) | 36.9 µM (inactive) | 16.2 µM (inactive) | 25.9 µM (inactive) | 28.3 µM (inactive) | 39.9 µM (inactive) | 22.4 µM (inactive) | 23.1 µM (inactive) | 34.2 µM (inactive) | 21 µM (inactive) | 21.5 µM (inactive) | 7.6 µM (inactive) | 28.3 µM (inactive) |  | 22.5 µM (inactive) | 30.8 µM (inactive) | 25.6 µM | 27.7 µM (inactive) | 23.3 µM (inactive) | 43.9 µM (inactive) |  |
| Nc1nc(N)c2cc(CNc3ccc(C(=O)NC(CC(=O)O)C(=O)O)c(Cl)c3)ccc2n1 (stereo unspecified) | 0.0877 µM (active) | 0.0893 µM (active) | 0.288 µM (active) | 0.0796 µM (active) | 357 µM (inactive) | 0.524 µM (active) | 0.0736 µM (active) | 0.112 µM (active) | 0.0346 µM (active) | 0.278 µM (active) | 0.8 µM (active) | 0.0501 µM (active) | 0.313 µM (active) | 0.0256 µM (active) |  | 0.0203 µM | 0.248 µM (active) | < 0.01 µM (active) | < 0.0103 µM (active) | 0.0342 µM (active) |
| CC1=CCC([C@@](C)(O)CCCC(C)(C)N=C=S)CC1 (stereo partly specified) |  | 16.9 µM (inactive) | 16.6 µM (inactive) | 15.5 µM (inactive) | 26.5 µM (inactive) | 21 µM (inactive) | 17.7 µM (inactive) | 20.2 µM (inactive) | 17.6 µM (inactive) | 18.1 µM (inactive) | 18.4 µM (inactive) | 16.4 µM (inactive) | 19.2 µM (inactive) | 16.5 µM (inactive) | 25.7 µM (inactive) | 18.5 µM | 17.3 µM (inactive) | 13.7 µM (inactive) | 18.3 µM (inactive) | 22.2 µM (inactive) |
| CCN(CCO)CC1CCCC2CCCCC21 (stereo unspecified) | > 100 µM (inactive) | > 100 µM (inactive) | > 100 µM (inactive) | > 100 µM (inactive) | > 100 µM (inactive) | > 100 µM (inactive) | > 100 µM (inactive) | > 100 µM (inactive) | > 100 µM (inactive) | > 100 µM (inactive) | > 100 µM (inactive) | > 100 µM (inactive) | > 100 µM (inactive) | > 100 µM (inactive) | > 100 µM (inactive) | > 100 µM | > 100 µM (inactive) | > 100 µM (inactive) | > 100 µM (inactive) |  |
| O=C1c2cc(Cl)ccc2N=C(NC2CCCC2)C2CSCN12 (stereo unspecified) | > 100 µM (inactive) | > 100 µM (inactive) | > 100 µM (inactive) | 35.7 µM (inactive) | 39.6 µM (inactive) | 42 µM (inactive) | > 100 µM (inactive) | > 100 µM (inactive) | > 100 µM (inactive) | > 100 µM (inactive) | 60 µM (inactive) | > 100 µM (inactive) |  | 47.4 µM (inactive) | 87.5 µM (inactive) | > 100 µM | > 100 µM (inactive) | > 100 µM (inactive) | > 100 µM (inactive) | 45.2 µM (inactive) |
| O=C(c1ccccc1)c1ccc(N2C(=O)/C(=C/c3cccc([N+](=O)[O-])c3)N=C2c2ccccc2)c(N2C(=O)/C(=C/c3cccc([N+](=O)[O-])c3)N=C2c2ccccc2)c1 | 49.8 µM (inactive) | 20.8 µM (inactive) | 78.3 µM (inactive) | 11 µM (inactive) | 30.7 µM (inactive) | 24 µM (inactive) | 79.1 µM (inactive) | 32.4 µM (inactive) | 11 µM (inactive) | 98.4 µM (inactive) | 30 µM (inactive) | 51.9 µM (inactive) | 26.3 µM (inactive) | 5.28 µM (inactive) | 12.8 µM (inactive) | 16.5 µM | 54.8 µM (inactive) | 39.4 µM (inactive) | 32.9 µM (inactive) |  |
| c1ccc(CN2CCC(Nc3ccccc3)(c3nnnn3Cc3ccccc3)CC2)cc1 |  | 23.6 µM (inactive) | 17.2 µM (inactive) | 13.3 µM (inactive) | 24.2 µM (inactive) | 19.5 µM (inactive) | 22.4 µM (inactive) | 28.1 µM (inactive) | 32.2 µM (inactive) | 39.7 µM (inactive) |  | 38.4 µM (inactive) | 20.5 µM (inactive) | 15.7 µM (inactive) | 12.9 µM (inactive) | 27.5 µM | 27.3 µM (inactive) | 20.1 µM (inactive) | 22.2 µM (inactive) | 20 µM (inactive) |
| COc1cc2c(cc1OCCCCOc1cc3nc(C)nc(Cl)c3cc1OC)N=C[C@@H]1CCCN1C2=O | 2.38 µM (inactive) | 1.48 µM (inactive) | 2.34 µM (inactive) | 1.89 µM (inactive) | 1.99 µM (inactive) | 15.3 µM (inactive) | 3.12 µM (inactive) | 1.64 µM (inactive) | 2.79 µM (inactive) | 1.93 µM (inactive) | 2.06 µM (inactive) | 3.22 µM (inactive) | 2.04 µM (inactive) | 3.4 µM (inactive) |  | 1.43 µM | 17.4 µM (inactive) | 2.21 µM (inactive) | 2.54 µM (inactive) |  |
| CCOc1ccc(/N=N/C2C(=O)N(C(=O)CC(=O)Nc3ccccc3OC)N=C2C)cc1 (stereo unspecified) | > 36.7 µM (inactive) | > 44.3 µM (inactive) | > 100 µM (inactive) | 4.35 µM (inactive) | 2.85 µM (inactive) | > 65 µM (inactive) | > 39.1 µM (inactive) | 5.43 µM (inactive) | > 43.3 µM (inactive) | > 100 µM (inactive) | 8.83 µM (inactive) | > 77.6 µM (inactive) | 7.83 µM (inactive) | 13.8 µM (inactive) | 45 µM (inactive) | 14.5 µM |  | 8.63 µM (inactive) | 8 µM (inactive) | > 100 µM (inactive) |
| O=[N+]([O-])C1=Cc2cc(Cl)ccc2OC1c1cccc2ccccc12 (stereo unspecified) | 0.366 µM (active) | 1.57 µM (inactive) | 1.34 µM (inactive) | 1.79 µM (inactive) | 0.692 µM (active) | 0.442 µM (active) | 0.396 µM (active) | 0.625 µM (active) | 1.7 µM (inactive) | 0.723 µM (active) | 0.603 µM (active) | 1.91 µM (inactive) |  | 1.7 µM (inactive) | 0.317 µM (active) | 0.37 µM | 1.65 µM (inactive) | 0.187 µM (active) | 0.149 µM (active) | 0.191 µM (active) |
| COc1cc(NS(C)(=O)=O)ccc1Nc1cc(C)nc2ccc3[nH]ccc3c12 | > 100 µM (inactive) | > 100 µM (inactive) | > 100 µM (inactive) | > 100 µM (inactive) | > 100 µM (inactive) | > 100 µM (inactive) | > 100 µM (inactive) | > 100 µM (inactive) | > 100 µM (inactive) | > 100 µM (inactive) | > 100 µM (inactive) | > 100 µM (inactive) |  | > 100 µM (inactive) | > 100 µM (inactive) | > 100 µM | > 100 µM (inactive) | > 100 µM (inactive) | > 100 µM (inactive) |  |
| COc1cc(-c2nc(N)c(C#N)c3c2CCS(=O)(=O)c2ccc(C)cc2-3)cc(OC)c1OC | > 100 µM (inactive) | > 100 µM (inactive) | > 100 µM (inactive) | > 100 µM (inactive) | 33.8 µM (inactive) | 98.2 µM (inactive) | 19.1 µM (inactive) | 18.7 µM (inactive) | > 100 µM (inactive) | 39.6 µM (inactive) | > 100 µM (inactive) | > 100 µM (inactive) |  | > 100 µM (inactive) | > 100 µM (inactive) | > 100 µM | 7.05 µM (inactive) | > 100 µM (inactive) | > 100 µM (inactive) | > 100 µM (inactive) |
| COc1cc(C2=C(C)[C@@H]3CN(CC=C3c3ccc(Cl)cc3)C2)c(S(=O)(=O)O)cc1OC | > 100 µM (inactive) | > 100 µM (inactive) | > 100 µM (inactive) | > 100 µM (inactive) | > 100 µM (inactive) | > 100 µM (inactive) | > 100 µM (inactive) | > 100 µM (inactive) | > 100 µM (inactive) | > 100 µM (inactive) | > 100 µM (inactive) | > 100 µM (inactive) |  |  | > 100 µM (inactive) | > 100 µM | > 100 µM (inactive) | > 100 µM (inactive) | > 100 µM (inactive) | > 100 µM (inactive) |
| CN1c2ccccc2C(=O)NC12CCNCC2 |  | > 100 µM (inactive) | > 100 µM (inactive) | > 100 µM (inactive) | 0.082 µM (active) | > 100 µM (inactive) | > 100 µM (inactive) | > 100 µM (inactive) | > 100 µM (inactive) |  |  | > 100 µM (inactive) | > 100 µM (inactive) | > 100 µM (inactive) | > 100 µM (inactive) |  | > 100 µM (inactive) | > 100 µM (inactive) | > 100 µM (inactive) | > 100 µM (inactive) |
